Reference: ChEMBL document CHEMBL1138868, “Interpreting steep dose-response curves in early inhibitor discovery” (J Med Chem, 2006)

Key:
[1] = molecular target: T1, Beta-lactamase (Escherichia coli K-12, UniProt P00811); assay: Inhibition of 10 nM AmpC beta lactamase
[2] = molecular target: T1, Beta-lactamase; assay: Inhibition of 30 nM AmpC beta lactamase
[3] = molecular target: T1, Beta-lactamase; assay: Inhibition of 1 nM AmpC beta lactamase
[4] = molecular target: T1, Beta-lactamase; assay: Inhibition of 20 nM AmpC beta lactamase

T1 sequence (P00811 whole entry): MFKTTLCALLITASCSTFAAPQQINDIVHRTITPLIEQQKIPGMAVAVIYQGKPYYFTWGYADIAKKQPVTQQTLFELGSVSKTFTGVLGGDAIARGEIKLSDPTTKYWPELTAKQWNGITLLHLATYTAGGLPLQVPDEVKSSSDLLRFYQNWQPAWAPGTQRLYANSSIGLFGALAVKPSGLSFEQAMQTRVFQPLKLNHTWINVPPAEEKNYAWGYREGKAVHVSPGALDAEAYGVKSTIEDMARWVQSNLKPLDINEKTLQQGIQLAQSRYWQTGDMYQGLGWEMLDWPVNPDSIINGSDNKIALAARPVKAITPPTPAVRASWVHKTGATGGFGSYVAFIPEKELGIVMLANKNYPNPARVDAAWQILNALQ

Compound	IC50 [1] [µM]	IC50 [2] [µM]	IC50 [3] [µM]	IC50 [4] [µM]
CC(=O)c1c(O)c(C)c(O)c(Cc2c(O)c3c(c(C(=O)/C=C/c4ccccc4)c2O)OC(C)(C)C=C3)c1O [ROTTLERIN]	21	76	1.8	–
O=C1OC(c2ccc(O)cc2)(c2ccc(O)cc2)c2c(I)c(I)c(I)c(I)c21 [TETRAIODOPHENOLPHTHALEINE]	20	–	3.8	19
